For 12 compounds, TGI results are on record in PubChem BioAssay (NCI).

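Values below derive from 48-hour exposures of cells grown in 96-well plates, with endpoints linearly interpolated between the two concentrations bracketing the appropriate inhibition level. The concentration for full growth arrest is given as TGI.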

Assay in all cases: inhibition of tumour cell growth, NCI panel, 48 h
The subject of assay [1] is ACHN renal.
Assay [2] has as its system UACC-62 melanoma.
In assay [3] the test system is HOP-62 NSCLC.
The subject of assay [4] is SR leukemia.
Assay [5] relates to MALME-3M melanoma.
Assay [6] concerns SW-620 colon.
In assay [7] the test system is HOP-18 NSCLC.
The subject of assay [8] is 786-0 renal.
The test system of assay [9] is UACC-257 melanoma.
Assay [10] deals with TK-10 renal.
The subject of assay [11] is K-562 leukemia.
Assay [12] has as its system EKVX NSCLC.
The subject of assay [13] is HCT-116 colon.
The subject of assay [14] is SF-539 CNS.
In assay [15] the test system is SK-MEL-5 melanoma.
In assay [16] the test system is MDA-MB-231 breast.
In assay [17] the test system is HS 578T breast.
Assay [18] deals with NCI/ADR-RES ovarian.
For assay [19], the system named is BT-549 breast.
For assay [20], the system named is PC-3 prostate.

Take `Cc1c(/C=N/NC(=O)c2ccccc2)c(=O)n(-c2ccccc2)n1C`: the TGI in assay [1], in assay [2], in assay [3], in assay [4], in assay [5] and in assay [6] was over 100 µM throughout. Besides, the TGI in assay [7], in assay [8], in assay [9], in assay [10], in assay [11] and in assay [12] was over 100 µM each time. Moreover, the TGI in [13] and in assay [14] was over 100 µM in each case.
For the compound `CC(C)=CCC/C(C)=C/CC/C(C)=C/CC/C=C(\C)CC/C=C(\C)CCC1SC1(C)C` (stereo not drawn), the TGI in assay [1], in assay [2], in assay [3], in assay [5], in assay [6] and in assay [15] was over 100 µM each time. Besides, the TGI in [7], in [8], in assay [9], in assay [10], in [11] and in assay [12] was over 100 µM throughout. The TGI in [13] and in assay [14] was over 100 µM in each case.
Turning to `O=C1NC2OCC(O)C(O1)C2O` (stereo not drawn), the TGI in assay [1], in assay [2], in [3], in assay [4], in [5] and in assay [6] was over 100 µM each time. Moreover, the TGI in assay [15], in assay [7], in [8], in assay [9], in [10] and in assay [11] was over 100 µM throughout. Further, the TGI in assay [12] and in [14] was over 100 µM each time.
As for `CC(=O)c1c2c(cc3c1CC1(Cc4cc5c(cc4C1=O)CCC5)C3)CCC2` (stereo not drawn), the TGI in [1], in [2], in [3], in [4], in [16] and in [17] was over 100 µM in each case. For the same compound, the TGI was over 100 µM in assay [5]; over 100 µM in [6]; over 69.4 µM in [15]; over 100 µM in [8]; over 100 µM in [9]; over 100 µM in assay [10]. Besides, the TGI in [18], in assay [11], in [19], in assay [12], in assay [20] and in assay [13] was over 100 µM throughout. This compound also yielded a TGI in assay [14] of over 100 µM.
Turning to `CC1(C)N(OC2CCCCO2)C(c2ccccc2)C(c2ccccc2)=[N+]1[O-]` (stereo not drawn), the TGI in assay [1], in assay [2], in assay [3], in [4], in assay [16] and in [17] was over 100 µM in each case. Moreover, the TGI in [5], in assay [6], in assay [15], in [8], in assay [9] and in assay [10] was over 100 µM throughout. For the same compound, the TGI in [18], in [11], in assay [19], in [12], in [20] and in assay [13] was over 100 µM throughout. In assay [14], this compound showed a TGI of over 100 µM.
As to `CC1=C2C(=O)C3[C@@H](CCC4=CC(=O)CC[C@@]43C)C2CC[C@]12O[C@@H]1C[C@H](C)CN[C@H]1[C@H]2C` (stereo partly drawn), the TGI is over 100 µM in assay [1]; 61 µM in [2]; 68.2 µM in [3]; 43.4 µM in [4]; over 100 µM in assay [6]; over 100 µM in assay [15]. Also, the TGI is over 100 µM in assay [7]; over 100 µM in assay [8]; over 100 µM in assay [9]; 98.7 µM in assay [10]; 36.4 µM in [11]; over 100 µM in [12]. The TGI in assay [13] and in assay [14] was over 100 µM each time.
With `NCCCCC(N)C(=O)N1CCN(c2nc(N3CCCC3)c3nc(Cl)c(NCc4ccccc4)nc3n2)CC1` (stereo not drawn), the TGI in [1] was 38.1 µM; in [2] it was 36.7 µM; in [3] it was 29.3 µM; in assay [4], 44.9 µM; in [16] it was 34.3 µM; in assay [17], 47.4 µM. Moreover, the TGI in assay [5] was 43.5 µM; in [6], 47.7 µM; in assay [15], 34.1 µM; in assay [8], 33.1 µM; in assay [9] it was 35.5 µM; in assay [10], 35.6 µM. Moreover, the TGI is over 100 µM in assay [18]; 47.2 µM in [11]; 34.4 µM in assay [19]; 36 µM in assay [12]; 32.1 µM in [20]; 32.1 µM in assay [13]. The TGI in [14] was 37.6 µM.
As to `COc1ccc(-c2nc(N(C)C)c3ccccc3n2)cc1`, the TGI in assay [1] worked out at 53.5 µM; in assay [2], 37.6 µM; in [3] it was 51.5 µM; in [4], 29.1 µM; in assay [16], 96.5 µM; in [17] it was 59.2 µM. Moreover, the TGI in assay [5] was found to be 42.1 µM; in assay [6], 63.5 µM; in assay [15] it was 26.2 µM; in [8], 32.3 µM; in assay [9], 32.6 µM; in assay [10], 65.8 µM. Besides, the TGI is 36.7 µM in assay [18]; 40.7 µM in assay [11]; 43.5 µM in assay [19]; 22.3 µM in assay [12]; 58.8 µM in assay [20]; 17.4 µM in assay [13]. In assay [14], the TGI came to 42.8 µM.
Consider `COc1ccc(OC)c(C2CCCc3c2cnc2nc(N)nc(N)c32)c1` (stereo not drawn), for which the TGI in [1], in assay [2], in assay [3], in [4], in [16] and in assay [17] was over 100 µM each time. For the same compound, the TGI in [5], in assay [6], in [15], in assay [8], in assay [9] and in [10] was over 100 µM throughout. Besides, the TGI in assay [18], in assay [11], in assay [19], in assay [12], in assay [20] and in assay [13] was over 100 µM in each case. In [14], the TGI was over 100 µM.
As for `O=C1NCC2(CCN(Cc3ccccc3)CC2)N1`, the TGI in assay [1], in assay [2], in assay [3], in [4], in assay [16] and in assay [17] was over 100 µM throughout. For the same compound, the TGI in [5], in assay [6], in assay [15], in assay [8], in assay [9] and in assay [10] was over 100 µM throughout. The TGI in assay [18], in assay [11], in [19], in [12], in assay [20] and in [13] was over 100 µM each time. The compound further yielded a TGI in assay [14] of over 100 µM.
As for `Oc1ccc(-c2c3ccccc3c(-c3ccc(OCCBr)cc3)c3ccccc23)cc1`, the TGI in assay [1] turned out to be 90.7 µM; in assay [2], 42.1 µM; in [3] it was 50.6 µM; in assay [4], 92.6 µM; in assay [16] it was 44.6 µM; in assay [17], 82.2 µM. For the same compound, the TGI in [5] is 33.8 µM; in [6], over 100 µM; in [15] it was 36.3 µM; in [8], 44.5 µM; in assay [9], 54.5 µM; in assay [10] it was 99.2 µM. The TGI in assay [18] was 75.6 µM; in assay [11], 97.4 µM; in [19], 57.4 µM; in [12] it was over 100 µM; in assay [20] it was 73.2 µM; in [13] it was over 100 µM. In addition, the TGI in [14] came out at 32.4 µM.
`CCOC(=O)C1(Cc2ccccc2)Cc2cc3c(cc2C1=O)CCC3` (stereo not drawn): the TGI in [1], in assay [2], in assay [3], in assay [4], in assay [16] and in [17] was over 100 µM each time. Further, the TGI in [5], in assay [6], in assay [15], in assay [8], in assay [9] and in assay [10] was over 100 µM throughout. Also, the TGI in assay [18], in assay [11], in assay [19], in assay [12], in assay [20] and in assay [13] was over 100 µM each time. In assay [14], the TGI is over 100 µM.
